Data as given in patent US20250179059A1 (The Regents of the University of California, priority 2021, published 2025).
pIC50: −log10 of the molar value. Like-named read-outs stand apart in the source and are kept apart here.

What was measured:
[1] = biological target: T1, human BRD4 bromodomain II (Homo sapiens, UniProt O60885); experiment: Bromodomain binding assay (AlphaScreen), BRD4 BDII
T1 construct: human BRD4 bromodomain II [based on Genbank NM_058243, residues 349-460]; host or cells: E. coli
Outline: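 AlphaScreen competition with biotinylated H4 peptide (aa 1-21, K5/K8/K12/K16Ac), using nickel-chelate acceptor and streptavidin donor beads. Targets were His6-BRD4 BDI (44-170) or BDII (349-460), with a 30 min compound preincubation over a 10-point 3-fold series. IC50 was fitted from percentage peptide binding.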

[2] = system: human SKM-1 acute myeloid leukemia cells; experiment: SKM-1 antiproliferation cell-based assay (ATPlite); settings: Homo sapiens
Outline: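 Log-phase cells in RPMI 1640/15% FBS were seeded at 34722 cells/mL and exposed for 4 days to nine-concentration DMSO serial dilutions in triplicate. Viability was read as ATP luminescence (ATPlite 1step), and IC50 values came from variable-slope non-linear regression.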

[3] = AlphaScreen assay, Table C2, read-out: BRD4 BDII IC50
[4] = SKM-1, 96 h, SKM-1 antiproliferation assay, 4 days, Table C2
[5] = BRD4 BDII AlphaScreen assay, read-out: BRD4 BD2 IC50
[6] = SKM-1, SKM-1 antiproliferation assay

SMILES	pIC50 [1, 3]	GI50 [2, 4] [nM]	pIC50 [1, 5]	GI50 [2, 6] [nM]
Cn1ccn(-c2ccc(-c3cc(F)cc(-c4ccc(C(F)F)c(N5CCN(C(C)(C)C)CC5)c4)c3O)cc2Cl)c1=O [Example 813, 1-(3″-(4-(tert-butyl)piperazin-1-yl)-3-chloro-4″-(difluoromethyl)-5′-fluoro-2′-hydroxy-[1,1′:3′,1″-terphenyl]-4-yl)-3-methyl-1H-imdiazol-2(3H)-one]	9.00 to 11.00	30 to 300		
COc1cc(-c2cccc(-c3ccc(NC(C)=O)c(F)c3)c2O)cc(N2CCNCC2)n1 [Example 339, N-(3-fluoro-2′-hydroxy-3′-(2-methoxy-6-(piperazin-1-yl)pyridin-4-yl)-[1,1′-biphenyl]-4-yl)acetamide]	7.00 to 8.00	300 to 3000		
CC(=O)Nc1ccc(-c2cccc(-c3cc(NCCO)nc(N4CCNCC4)c3)c2O)cc1F [Example 333, N-(3-fluoro-2′-hydroxy-3′-(2-((2-hydroxyethyl)amino)-6-(piperazin-1-yl)pyridin-4-yl)-[1,1′-biphenyl]-4-yl)acetamide]	8.00 to 9.00	30 to 300		
CN1CCN(c2c(F)cc(-c3cc(F)cc(-c4ccnc(N5CCNCC5)c4)c3O)cc2Cl)C1=O [Example 400, 1-(3-chloro-5,5′-difluoro-2′-hydroxy-3′-(2-(piperazin-1-yl)pyridin-4-yl)-[1,1′-biphenyl]-4-yl)-3-methylimidazolidin-2-one]	7.00 to 8.00	300 to 3000		
CC(C)(C)N1CCN(c2cccc(-c3nccc(-c4ccc(-n5cc[nH]c5=O)c(Cl)c4)c3O)c2)CC1 [Example 1038, 1-(4-(2-(3-(4-(tert-butyl)piperazin-1-yl)phenyl)-3-hydroxypyridin-4-yl)-2-chlorophenyl)-1H-imidazol-2(3H)-one]			7.00 to 8.00	30 to 300
CCN1CCN(c2cc(-c3cc(F)cc(-c4ccc(-n5ccn(C)c5=O)c(Cl)c4)c3O)ccn2)CC1 [Example 469, 1-(3-chloro-3′-(2-(4-ethylpiperazin-1-yl)pyridin-4-yl)-5′-fluoro-2′-hydroxy-[1,1′-biphenyl]-4-yl)-^3-methyl-1H-imidazol-2(3H)-one]	9.00 to 11.00	0.3 to 30		
Cn1ccn(-c2ccc(-c3cc(F)cc(-c4cccc(C#CC(C)(C)O)c4)c3O)cc2Cl)c1=O [Example 772, 1-(3-chloro-5′-fluoro-2′-hydroxy-3″-(3-hydroxy-3-methylbut-1-yn-1-yl)-[1,1′:3′,1″-terphenyl]-4-yl)-3-methyl-1H-imidazol-2(3H)-one]	7.00 to 8.00	300 to 3000		
C[C@@H]1CN(c2cc(-c3cccc(-c4ccc(N5CCCC5=O)c(F)c4)c3O)ccn2)CCN1 [Example 252, (R)-1-(3-fluoro-2′-hydroxy-3′-(2-(3-methylpiperazin-1-yl)pyridin-4-yl)-[1,1′-biphenyl]-4-yl)pyrrolidin-2-one]	8.00 to 9.00	300 to 3000		
Cc1cc(-c2ccc(-n3ccn(C)c3=O)c(Cl)c2)c(O)c(-c2ccnc(N3CCN(C(C)(C)C)CC3)c2)n1 [Example 998, 1-(4-(2′-(4-(tert-butyl)piperazin-1-yl)-3-hydroxy-6-methyl-[2,4′-bipyridin]-4-yl)-2-chlorophenyl)-3-methyl-1H-imidazol-2(3H)-one]			8.00 to 9.00	0.3 to 30
Cc1cc(-c2ccc(-n3ccn(C)c3=O)c(Cl)c2)c(O)c(-c2cc(N3CCN[C@H](C)C3)c3cc[nH]c3c2)c1 [Example 567]	8.00 to 9.00	0.3 to 30		

Other lines, results leading:

pIC50 [1, 3]	GI50 [2, 4] [nM]	pIC50 [1, 5]	GI50 [2, 6] [nM]	SMILES
9.00 to 11.00	0.3 to 30			CC(C)N1CCN(c2cc(-c3cc(F)cc(-c4ccc(-n5ccn(C)c5=O)c(Cl)c4)c3O)ccc2C(F)F)CC1 [Example 814, 1-(3-chloro-4″-(difluoromethyl)-5′-fluoro-2′-hydroxy-3″-(4-isopropylpiperazin-1-yl)-[1,1′:3′,1″-terphenyl]-4-yl)-3-methyl-1H-imidazol-2(3H)-one]
9.00 to 11.00	0.3 to 30			Cn1ccn(-c2ccc(-c3cc(F)cc(-c4cc(N5CCN(C(C)(C)C)CC5)n(C)c(=O)c4)c3O)cc2Cl)c1=O [Example 735, 6-(4-(tert-butyl)piperazin-1-yl)-4-(3′-chloro-5-fluoro-2-hydroxy-4′-(3-methyl-2-oxo-2,3-dihydro-1H-imidazol-1-yl)-[1,1′-biphenyl]-3-yl)-1-methylpyridin-2(1H)-one]
		8.00 to 9.00	0.3 to 30	Cc1cc(-c2ccc(-n3ccn(C)c3=O)c(Cl)c2)c(O)c(-c2cccc(N3CCC4(CCCN4C(C)C)C3)c2)n1 (stereo not shown) [Example 981, 1-(2-chloro-4-(3-hydroxy-2-(3-(1-isopropyl-1,7-diazaspiro[4.4]nonan-7-yl)phenyl)-6-methylpyridin-4-yl)phenyl)-3-methyl-1H-imidazol-2(3H)-one]
9.00 to 11.00	0.3 to 30			Cn1ccn(-c2ccc(-c3cc(F)cc(-c4ccnc(N5CCCN(C(C)(C)C)CC5)c4)c3O)cc2Cl)c1=O [Example 840, 1-(3′-(2-(4-(tert-butyl)-1,4-diazepan-1-yl)pyridin-4-yl)-3-chloro-5′-fluoro-2′-hydroxy-[1,1′-biphenyl]-4-yl)-3-methyl-1H-imidazol-2(3H)-one]
8.00 to 9.00	30 to 300			C[C@@H]1CN(c2cc(-c3cccc(-c4ccc(N5CCN(C)C5=O)c(F)c4)c3O)ccn2)CCN1 [Example 289, (R)-1-(3-fluoro-2′-hydroxy-3′-(2-(3-methylpiperazin-1-yl)pyridin-4-yl)-[1,1′-biphenyl]-4-yl)-3-methylimidazolidin-2-one]
		8.00 to 9.00	0.3 to 30	Cn1ccn(-c2ccc(-c3ccnc(-c4cccc(N5CCN(C(C)(C)C)CC5)c4)c3N)cc2Cl)c1=O [Example 976, 1-(4-(3-Amino-2-(3-(4-(tert-butyl)piperazin-1-yl)phenyl)pyridin-4-yl)-2-chlorophenyl)-3-methyl-1H-imidazol-2(3H)-one]
8.00 to 9.00	300 to 3000			CC(=O)Nc1ccc(-c2cc(F)cc(-c3cccc(N4CCNCC4)c3)c2O)cc1F [Example 180, N-(3,5′-difluoro-2′-hydroxy-3″-(piperazin-1-yl)-[1,1′:3′,1″-terphenyl]-4-yl)acetamide]
9.00 to 11.00	0.3 to 30			Cn1ccn(-c2ccc(-c3cc(F)cc(-c4ccnc(N5CCCNCC5)c4)c3O)cc2Cl)c1=O [Example 623, 1-(3′-(2-(1,4-diazepan-1-yl)pyridin-4-yl)-3-chloro-5′-fluoro-2′-hydroxy-[1,1′-biphenyl]-4-yl)-3-methyl-1H-imidazol-2(3H)-one]
9.00 to 11.00	0.3 to 30			Cn1ccn(-c2ccc(-c3cc(F)cc(-c4cc(Cl)cc(N5CCN(C(C)(C)C)CC5)c4)c3O)cc2Cl)c1=O [Example 827, 1-(3″-(4-(tert-butyl)piperazin-1-yl)-3,5″-dichloro-5′-fluoro-2′-hydroxy-[1,1′:3′,1″-terphenyl]-4-yl)-3-methyl-1H-imidazol-2(3H)-one]
9.00 to 11.00	30 to 300			Cn1ccn(-c2ccc(-c3cc(F)cc(-c4cnnc(N5CC[C@](C)(O)C5)c4)c3O)cc2Cl)c1=O [Example 837, (S)-1-(3-chloro-5′-fluoro-2′-hydroxy-3′-(6-(3-hydroxy-3-methylpyrrolidin-1-yl)pyridazin-4-yl)-[1,1′-biphenyl]-4-yl)-3-methyl-1H-imidazol-2(3H)-one]
